Experiments:
[1] = system: SM and MD cartilage cultures (calf metaphalangeal joint chondrocytes); assay: Bovine cartilage cultures treated with interleukin-1β; format: cell-based; settings: 10 ng/ml for 7 days prior to harvesting
Protocol: Articular cartilage was excised separately from the superficial-middle (SM) or middle-deep (MD) layers of calf metaphalangeal joint using a sterile technique as described by Boyle et al. The cartilage slices were placed in a petri dish containing Ham's F12 and 1% antibiotics in HAT. Chondrocytes were isolated from the SM and MD extracellular matrix by sequential enzymatic digestion using proteinase (0.5%, 1 hour, 37° C.), washed three times with Ham's F12 medium and finally digested with collagenase A (0.1%, overnight, 37° C.). Teflon filter inserts (Millicell CMR, Millipore Corp., Bedford, Mass., USA) were placed into the wells of the 24 well culture dish, coated with type II collagen (0.5 mg/ml of 0.1N acetic acid), dried overnight and UV sterilized for 30 mins. The filter inserts were washed thoroughly with Ham's F12 before plating the cells. The isolated SM and MD chondrocytes were washed extensively and resuspended in Ham's F12 with 5% fetal bovine serum (FBS) and plated on the teflon inserts at a density of 3.0×10^6/cm^2. The cells were supplemented with the medium containing 20% FBS and 100 μg/ml ascorbic acid (added fresh at all times) from day 7 onwards every alternate working day. Some cartilage filter cultures were treated with 10 ng/ml interleukin-1β (Il-1β, human recombinant, Sigma) for 7 days (three changes of the Ham's F12 with 20% FBS and Il-1β) prior to harvesting. The chondrocytes were grown at 37° C., 100% humidity and 5% CO2. The chondrocyte cultures were harvested at fixed time points i.e. day 21, 35, and 56 and stored at −20° C. till the analysis day.
The untreated (controls) and Il-1β-treated SM and MD cartilage cultures were analyzed for cartilage thickness and collagen, proteoglycan, pyridinoline, deoxypyridinoline, and CM-1 content as described herein.

[2] = Rehydrolysis of purified CM-1 calibrator with 6N HCl for different time points; format: physicochemical; settings: 110° C.
Protocol: 100 μl of CM-1 calibrator was lyophilized, resuspended in 3.0 ml of 50% methanol and UV absorbance was measured. Five aliquots of 500 μl each were rehydrolyzed with 1000 μl 6N HCl at 110° C. for 3, 6, 12, 24 and 48 hrs. The rehydrolyzed CM-1 was lyophilized and resuspended in 500 μl of 50% methanol and UV absorbance was measured. Methanol was then evaporated and the samples were resuspended in 500 μl of the mobile phase and injected into the HPLC analytical column. The results of rehydrolysis of CM-1 were compared to the unhydrolyzed CM-1 calibrator.

[3] = Storage of CM-1 calibrator at room temperature or in freezer, UV absorbance; format: physicochemical; settings: calibrator in 50% methanol, eight months; for UV absorbance at 306 nm after storage: reference calibrator 0.69 AU
Protocol: The UV absorbance of CM-1 calibrator (30 ug/ml of 50% methanol) was measured. An aliquot of CM-1 calibrator was kept on the bench top for […], and another aliquot was kept in a storage box in a −70° C. freezer for an equal length of time. The UV absorbance of CM-1 calibrator aliquot was measured after eight months of respective storage procedure.

[4] = Rehydrolysis of purified CM-1 with 6N HCl, UV absorption; format: physicochemical; settings: purified CM-1, 6N HCl, 110° C., 48 hrs
Protocol: An aliquot of purified CM-1 was lyophilized. The lyophilized CM-1 was resuspended in 7 ml of 50% HPLC grade methanol. The UV absorption of CM-1 was measured at 306 nm using a Shimatzu Spectrophotometer. The methanol was evaporated and CM-1 was rehydrolysed for 48 hrs in 6N HCl at 110° C. CM-1 was then lyophilized and resuspended in 7 ml of 50% HPLC grade methanol. The UV absorption of CM-1 was measured.

[5] = Solubility of CM-1 in various solvents; format: physicochemical

## Il-1β: interleukin-1β, human recombinant, Sigma; used to treat cartilage filter cultures
[1]; SM and DM groups
  glycosaminoglycan (GAG) content: decreased
[1]; SM and DM groups, in particular day 56
  collagen content: decreased
[1]; SM and MD groups
  cartilage thickness versus untreated controls: thinner
[1]; day 35 and more so day 56
  Pyd and Dpyd content: decrease

## 2,6-dimethyl-difuro-8-pyrone [CM-1]
[2]; 3 hrs (maintained up to 12 hrs)
  CM-1 yield after rehydrolysis (unhydrolyzed calibrator = 100%): 64%
[2]; 24 hrs
  CM-1 yield after rehydrolysis (unhydrolyzed calibrator = 100%): 19%
[2]; 48 hrs
  CM-1 yield after rehydrolysis (unhydrolyzed calibrator = 100%): 4.5%
[2]; prolonged period
  stability when rehydrolyzed with 6N HCl: not stable
[3]; room temperature
  decrease of UV absorbance at 306 nm after storage: 75%
  UV absorbance at 306 nm after storage: 0.1718 AU
[3]; −70° C. freezer
  UV absorbance at 306 nm after storage: 0.73 AU
[4]
  decrease of UV absorption at 276 nm after rehydrolysis: 51%
  decrease of UV absorption at 306 nm after rehydrolysis: 75%
[4]; before treatment 1.00 (278 nm)
  UV absorption at 276 nm after rehydrolysis: 0.4865 AU
[4]; before treatment 1.884
  UV absorption at 306 nm after rehydrolysis: 0.469 AU
[5]; chloroform
  solubility: insoluble
[5]; hexane
  solubility: insoluble
[5]; methanol
  solubility: highly soluble
[5]; water
  solubility: highly soluble
